No end group written: not given here.
What was measured:
[1] = non-GLP pilot toxicology study in nonhuman primates; type: in vivo, cynomolgus monkeys; details: 90, 180 and 220 mg/kg; NHP; resolved within a few minutes
Experimental: (§1) Two pilot and 2 definitive repeat-dose toxicity studies were conducted with RIVPA (SEQ ID NO. 5) in mice and cynomolgus monkeys using the intravenous (IV; slow bolus) route of administration.
These resolved within a few minutes without detectable residual effects.

[2] = GLP 14-day repeat-dose IV toxicity study in mice; type: in vivo, mouse
Experimental: as §1
The safety of multiple daily injections of RIVPA (SEQ ID NO. 5) has also been evaluated in GLP studies in mice and cynomolgus monkeys. In mouse, doses of 20, 60, or 90 mg/kg/day were given IV for 14 days. […] In survivors of all groups, there was no evidence of toxicity in any organ or abnormal biochemistry or hematology.
In the latter study, no effect on T-cell, B-cell or NK-cell counts was observed after 14 days of intravenous RIVPA (SEQ ID NO. 5) dosing in the NHP. […] Collectively, there is no indication of a potential for RIVPA (SEQ ID NO. 5) to cause immunotoxicity or non-specific immune activation. No hyperactivation or suppression of adaptive immune responses, or other impact on the phenotypes of cells associated with adaptive immunity, has been detected following RIVPA (SEQ ID NO. 5) administration.

human normal blood cells = assay: proliferation of normal blood cells in vitro (human); type: cell-based
[3] = tested on: primary human leukemia cells; assay: proliferation of primary leukemia cells in vitro; type: cell-based
[4] = toxicology and PK studies in mice with alternate routes of administration; details: mouse, in vivo, other: intraperitoneal or subcutaneous
[5] = Phase 1 study in healthy volunteers, safety (SAD and MAD phases); type: in vivo, human
From the text: Clinical experience with RIVPA (SEQ ID NO. 5) was obtained in a Phase 1 Study. The primary objective of the study was to determine the maximum tolerated dose (MTD) of single and repeat ascending doses of RIVPA (SEQ ID NO. 5) injectable solution following IV administration in healthy volunteers. The secondary objectives of this study included the assessment of the dose limiting toxicity (DLT), safety, PK and pharmacodynamic (PD) profiles of RIVPA (SEQ ID NO. 5) after single and repeated ascending IV doses of RIVPA (SEQ ID NO. 5). The study was divided into 2 phases: a single-ascending dose (SAD) phase and a multiple-ascending dose (MAD) phase.
Single IV doses of RIVPA (SEQ ID NO. 5) were well tolerated up to the maximum tested (8 mg/kg) and daily IV doses were well tolerated up to the maximum tested (6.5 mg/kg for 7 days). There were no dose limiting toxicities (DLTs) and the MTD was not reached in either phase of the trial. There were no deaths and no clinically significant, severe, or serious Adverse Events (AEs) reported during the study.
The most frequently reported TEAEs (observed in more than one subject who received RIVPA (SEQ ID NO. 5) and in a higher proportion (%) than placebo subjects) were study treatment procedure-related events (General Disorders and Administration Site Conditions) such as vessel puncture site haematoma, vessel puncture site reaction and vessel puncture site pain. All vessel puncture-related events were mild and determined to be unrelated to study treatment by the QI. The second most frequently reported TEAEs were Nervous System Disorders, specifically headache and dizziness; these events were only mild to moderate. All other TEAEs were reported by only 1 subject at any given dose level (maximum of 3 dose levels).
The incidence of “possibly-related” events was also higher in the 2 highest dose levels. However, due to the small sample sizes (4 subjects received active treatment in each cohort), it was not possible to conclude whether the results definitely represented a dose-response. The majority of the TEAEs were not related to study treatment and were mild in severity with only one event reported as moderate. The most frequently reported TEAEs for subjects who received RIVPA (SEQ ID NO. 5) were General Disorders and Administration Site Conditions (i.e., procedure-related events) such as vessel puncture site haematoma, vessel puncture site reaction, and vessel puncture site pain. All vessel puncture-related events were mild and judged to be unrelated to treatment. Increased alanine aminotransferase (ALT) and back pain were reported by 3 (15.0%) subjects who received RIVPA (SEQ ID NO. 5) and these events were observed by only one (10.0%) subject who received the placebo.

[6] = biological target: Sequestosome-1, also known as p62 (Homo sapiens, UniProt Q13501); details: cited from earlier work
Sequestosome-1, also known as p62, sequence (Q13501 whole entry): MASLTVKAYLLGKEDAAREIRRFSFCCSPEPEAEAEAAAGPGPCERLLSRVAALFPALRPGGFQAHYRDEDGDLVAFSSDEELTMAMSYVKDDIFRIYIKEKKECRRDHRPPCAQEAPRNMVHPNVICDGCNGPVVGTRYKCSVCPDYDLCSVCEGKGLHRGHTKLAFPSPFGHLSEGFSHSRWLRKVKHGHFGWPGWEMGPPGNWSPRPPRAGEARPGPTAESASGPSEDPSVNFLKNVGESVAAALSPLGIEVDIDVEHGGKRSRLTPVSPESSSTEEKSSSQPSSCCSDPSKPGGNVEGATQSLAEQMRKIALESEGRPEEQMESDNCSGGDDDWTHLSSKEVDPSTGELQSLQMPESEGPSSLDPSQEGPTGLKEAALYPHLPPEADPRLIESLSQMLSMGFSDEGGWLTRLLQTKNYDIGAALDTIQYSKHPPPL

With “RIVPA-NH2 [RIVPA, L-arginyl-L-isoleucyl-L-valyl-L-prolyl-L-alanine-amide]” the “clinical signs during and shortly after dosing” value [1] was “mild clinical signs”, the “adverse effects at 20 mg/kg” value ([2]; 20 mg/kg/day IV for 14 days, mouse) was “No adverse effects were observed” and the “mortality at 60 mg/kg” value ([2]; 60 mg/kg/day IV for 14 days, mouse) was “Lethality was also observed in 1 animal”. The “mortality at high dose” value ([2]; 90 mg/kg/day IV for 14 days, mouse) was “Deaths were observed”, the “immune-related organ weights, histopathology, hematology and clinical chemistry” value ([2]; mouse 14-day toxicity study) was “no changes were observed” and the “proliferation of human normal blood cells” value (human normal blood cells) was “did not promote the proliferation”. For the same substance, the “proliferation of primary human leukemia cells” value [3] was “did not promote the proliferation”, the NOAEL [4] was greater than 200 mg/kg and the “subjects reporting increased alanine aminotransferase (ALT) and back pain” value ([5]; MAD phase, placebo one (10.0%) subject) was 3 (15.0%) subjects. For the same substance, the MTD in humans ([5]; either phase of the trial, no DLTs) was “not reached”, the “single IV dose well tolerated up to the maximum tested” value ([5]; healthy volunteers, SAD phase) was 8 mg/kg and the “daily IV dose well tolerated up to the maximum tested” value ([5]; healthy volunteers, daily for 7 days, MAD phase) was 6.5 mg/kg. The “binding to p62” value [6] was “binds”.

From patent US20150148304A1, “Novel Peptides and Analogs for Use in the Treatment of Macrophage Activation Syndrome” (Soligenix, Inc., priority 2013, published 2015)
